Calls of active or inactive are those of the source. The rule behind the calls is not given here.

For 27 compounds, residual activity and inhibition results are on record in ChEMBL document CHEMBL1833933, “Relationship between the structures of flavonoids and their NF-κB-dependent transcriptional activities” (Bioorg Med Chem Lett, 2011).

In the first test the test system is HCT-116. Description: Inhibition of NF-kappaB activation expressed in HCT116 cells assessed as inhibition of TNF-alpha-induced transcriptional activation at 10 uM after 12 hrs by luciferase reporter gene assay relative to control. Type of test: cell-based. As to conditions: values are per cent of control.
With `COc1cc(-c2oc3cc(O)cc(O)c3c(=O)c2O[C@@H]2O[C@H](CO)[C@@H](O)[C@H](O)[C@H]2O)ccc1O`, the residual activity worked out at 115%.

For `O=C1C[C@@H](c2ccc(O)cc2)Oc2cc(O)cc(O)c21`, the residual activity was determined as 135%.

Consider `O=c1cc(-c2cccc(O)c2)oc2cccc(O)c12`, for which the residual activity was 126%.

In the case of `COc1ccccc1-c1cc(=O)c2ccc3ccccc3c2o1`, the residual activity came out at 65.1%.

For `COc1cc(O)c2c(=O)c(-c3ccc(O)cc3)coc2c1`, the residual activity worked out at 105%.

Regarding `COc1cccc2oc(-c3ccc(O)cc3)cc(=O)c12`, the residual activity was determined as 87.7%.

For `COc1ccc2c(=O)c(-c3ccccc3)coc2c1`, the residual activity stood at 132%.

Regarding `COc1ccc(/C=C/C(=O)c2ccc(OC)cc2O)cc1`, the residual activity stood at 83.1%.

As to `O=c1cc(-c2ccccc2)oc2ccc3ccccc3c12`, the residual activity worked out at 150%.

For the compound `COc1cc(-c2cc(=O)c3ccccc3o2)ccc1O`, the residual activity came out at 105%.

In the case of `O=c1cc(-c2ccccc2)oc2c1ccc1ccccc12`, the residual activity was 91.4%.

With `COc1cccc(-c2cc(=O)c3ccccc3o2)c1OC`, the residual activity stood at 100%.

In the case of `COc1ccc2c(c1)OC(c1cc(OC)c(OC)c(OC)c1)CC2=O` (stereo not drawn), the residual activity is 99.8%.

Take `COc1cc(OC)c2c(c1)OC(c1ccccc1)CC2=O` (stereo not drawn): the residual activity was 126%.

On to `O=c1c(O)c(-c2ccc(O)c(O)c2)oc2c(O[C@@H]3O[C@H](CO)[C@@H](O)[C@H](O)[C@H]3O)c(O)cc(O)c12`, for which the residual activity worked out at 99.1%.

`COc1cccc(/C=C/C(=O)c2cc(OC)cc(OC)c2)c1`: the residual activity was determined as 77.4%.

In the case of `COc1cccc2oc(-c3ccccc3)cc(=O)c12`, the residual activity stood at 63.9%.

As to `COc1cccc2c1C(=O)CC(c1ccccc1)O2` (stereo not drawn), the residual activity was found to be 108%.

`O=c1cc(-c2ccccc2)oc2ccccc12`: the residual activity was determined as 113%.

As for `O=c1cc(-c2ccccc2)oc2cccc(O)c12`, the residual activity stood at 116%.

For the compound `COc1cc(OC)c2c(=O)cc(-c3ccc(OC)c(OC)c3)oc2c1`, the residual activity is 124%.

As to `COc1cc(/C=C/C(=O)c2ccccc2OC)cc(OC)c1`, the residual activity amounted to 61.1%.

Regarding `COc1ccc(-c2coc3cc(OC)cc(OC)c3c2=O)cc1`, the residual activity turned out to be 123%.

As for `O=c1cc(-c2cccc(O)c2O)oc2ccccc12`, the residual activity was determined as 109%.

Turning to `Cc1c(-c2ccccc2)oc2c(C(=O)O)cccc2c1=O`, the residual activity came out at 143%.

On to `COc1ccc(-c2cc(=O)c3c(OC)cc(OC)cc3o2)cc1`, for which the residual activity came out at 89.9%.

The next test relates to HCT-116. Kind of test: Inhibition of TNF-alpha-induced NF-kappaB activation expressed in HCT116 cells assessed as reduction of IkappaB phosphorylation at Ser32 at 20 uM treated 30 mins before TNFalpha challenge by Western blot analysis. It counts as cell-based.
Settings: not given
A general note: A western blot detects proteins with antibodies after separation by electrophoresis.
On to `COc1cc(/C=C/C(=O)c2cc(OC)cc(OC)c2)cc(OC)c1`, for which the inhibition result is “Active”.

The next test concerns HCT-116. Description: Inhibition of TNF-alpha-induced NF-kappaB activation expressed in HCT116 cells assessed as reduction of RelA phosphorylation at Ser536 at 20 uM treated 30 mins before TNFalpha challenge by immunofluorescence microscopic analysis.
Settings: not given
It counts as cell-based.
For the compound `COc1cc(/C=C/C(=O)c2cc(OC)cc(OC)c2)cc(OC)c1`, the inhibition entry is “Active”.
